This note sets out measurements from patent US20220062291A1, “COMPOSITIONS AND METHODS OF TREATING CANCERS BY ADMINISTERING A PHENOTHIAZINE-RELATED DRUG THAT ACTIVATES PROTEIN PHOSPHATASE 2A (PP2A) WITH REDUCED INHIBITORY ACTIVITY TARGETED TO THE DOPAMINE D2 RECEPTOR AND ACCOMPANYING TOXICITY” (DANA-FARBER CANCER INSTITUTE, INC., priority 2018, published 2022).

In data set [1] the test system is p-ERK and p-AKT in KOPT-K1 cells. The experiment in a line: Western blot of p-ERK and p-AKT. The format is cell-based, human. The conditions noted are these: three hours. The source says: Levels of the PP2A endogenous substrates p-ERK and p-AKT in KOPT-K1 cells were examined because of the importance of the MAPK/ERK and PI3K/AKT/mTOR pathways in cancer cells.

Data set [2] in a line: in vivo. The conditions noted are these: female, mouse, po.
Procedure: PPZ and iPAP1 were each given per orally to eight-week-old female C57BL/6 mice every 24 hours (n=3 for each cohort). The mice were monitored for four recognized types of dopamine receptor D2 mediated toxicity, namely: i) general activity; ii) reactivity to touch; iii) fear/startle to sound; and iv) tone of abdominal muscle. Behavioral monitoring was done at 15 minutes, 1 hour, 4 hours and 24 hours after each treatment. PPZ and iPAP1 were each administered at 0, 2.5, 5, 10, 20 and 40 mg/kg body weight/dose, and iPAP1 was also administered at 80 mg/kg body weight/dose.
The test system of data set [3] is PLK1, PLK4, AURKA, KIF11, SASS6, RCC1, HAUS8, TPX2, PCNT, CENPJ and TUBG1 in KOPT-K1 cells. The experiment in a line: Relative mRNA expression of spindle monopolarity genes. The format is cell-based, human. The conditions noted are these: 1 μM, 6 hours. As to the method:
The relative mRNA expression of genes whose inducible CRISPR-cas9 knockout causes cell cycle arrest in prometaphase yielding spindle monopolarity (PLK1, PLK4, AURKA, KIF11, SASS6, RCC1, HAUS8, TPX2, PCNT, CENPJ and TUBG1) (McKinley et al., Dev. Cell 40:405-420 (2017)) was evaluated in […] cell lines. […] The results are illustrated in FIG. 33.

The target of data set [4] is T1, PP2A subunits (Homo sapiens, UniProt P30153+P67775+Q16537).
T1 construct: are endogenously expressed by KOPTK1 cells; endogenous in cells; host or cells: KOPT-K1 T-ALL cells / lysates
The experiment in a line: Co-immunoprecipitation of PP2A subunits (holoenzyme assembly). The conditions noted are these: purified subunits from insect cells. From the text:
The biochemical activity of iPAP1 was further characterized by addressing whether it acts exclusively on the three identified subunits to mediate the assembly of PP2A, or whether other proteins expressed by T-ALL cells are also required. Using baculovirus vectors, each subunit of PP2A was first expressed with a C-terminal tag in Hi5 insect cells, and then purified the subunit proteins using columns with antibodies against the tags bound to agarose beads (see, Example 5, FIG. 13-FIG. 14). […] PP2A is a unique enzyme consisting of three subunits and it needs to be properly assembled into a holoenzyme before it mediates phosphatase activity. […] The protein lysates were then immunoprecipitated with anti-PPP2CA antibody or normal IgG as a control, and the precipitates were immunoblotted with antibodies specifically detecting each of the PP2A subunits. […] Nuclear and cytoplasmic fractions were separated using NE-PER™ Nuclear and Cytoplasmic Extraction Kit (Thermo Fisher Scientific), and each of the subunits of PP2A was analyzed by western blot. Histone H3 and α tubulin expression levels were used as loading controls for nuclear and cytoplasmic fractions, respectively. […] Lysates were immunoprecipitated using an anti-PPP2CA antibody, and then blotted with antibodies specific for each PP2A subunit. […] The results of a co-immunoprecipitation assay using an anti-PPP2CA antibody for immunoprecipitation in KOPT-K1 cells treated with SMAP at 10 μM or control DMSO for 24 hours before they were lysed for protein extraction are illustrated in FIG. 9B. Lysates were immunoprecipitated using an anti-PPP2CA antibody, and then blotted with antibodies specific for each PP2A subunit.

In data set [5] the test system is KOPT-K1 cells. The experiment in a line: KOPT-K1 cell viability (PrestoBlue), IC50 after 72 hours. It is filed as cell-based, human. The procedure: For IC50 calculation, KOPT-K1 cells were treated with each of the compounds at various concentrations for 72 hours, followed by the determination of viable cell numbers with PrestoBlue® cell viability reagent. For the PP2A phosphatase activity assay, KOPT-K1 cells were treated with each of the compounds at 10 μM for 3 hours before phosphatase activity was measured. Dopamine D2 receptor activity was monitored in HEK293T cells coexpressing the dopamine D2 receptor, modified G protein and SRE luciferase reporter. Cells were treated with each of the compound at 10 μM for 3 hours, then lysed for the luciferase reporter assay.
For IC50 calculations, KOPT-K1 cells were treated with each of the compound at various concentrations for 72 hours, then their viability was examined by PrestoBlue® Cell Viability Reagent (Thermo Fisher Scientific). For PP2A phosphatase activity assay, KOPT-K1 cells were treated with each of the compound at 10 μM for three hours before the activity of PP2A was quantified using PP2A Immunoprecipitation Phosphatase Assay Kit (Merck Millipore®). DRD2 activity was monitored in HEK293T cells expressing DRD2, modified G protein and SRE luciferase reporter. Cells were treated with each of the compounds at 10 μM for three hours, then lysed for luciferase reporter assay. […] The biochemical assays were performed as indicated in Examples 7 and 8.

In data set [6] the test system is KOPT-K1, SUPT-13 and RPMI-8402 cells. Kind of data set: Dose-response viability in three T-ALL cell lines, 72 hours. The format is cell-based, human. As to the method:
Viable cells are shown on the Y axis as a percent of the DMSO control cells. Data are presented as means±s.d. (n=3). Data are presented as means±s.d. […] The IC50 for iPAP1 is 200 to 400 nM for these cell lines.
(Perrotti and Neviani, Cancer Metastasis Rev. 27(2):159-68 (2008); Sangodkar et al., J. Clin. Invest. 127(6):2081-2090 ([…])). […] Data are presented as means±s.d.

T1 sequence (P30153 2-589): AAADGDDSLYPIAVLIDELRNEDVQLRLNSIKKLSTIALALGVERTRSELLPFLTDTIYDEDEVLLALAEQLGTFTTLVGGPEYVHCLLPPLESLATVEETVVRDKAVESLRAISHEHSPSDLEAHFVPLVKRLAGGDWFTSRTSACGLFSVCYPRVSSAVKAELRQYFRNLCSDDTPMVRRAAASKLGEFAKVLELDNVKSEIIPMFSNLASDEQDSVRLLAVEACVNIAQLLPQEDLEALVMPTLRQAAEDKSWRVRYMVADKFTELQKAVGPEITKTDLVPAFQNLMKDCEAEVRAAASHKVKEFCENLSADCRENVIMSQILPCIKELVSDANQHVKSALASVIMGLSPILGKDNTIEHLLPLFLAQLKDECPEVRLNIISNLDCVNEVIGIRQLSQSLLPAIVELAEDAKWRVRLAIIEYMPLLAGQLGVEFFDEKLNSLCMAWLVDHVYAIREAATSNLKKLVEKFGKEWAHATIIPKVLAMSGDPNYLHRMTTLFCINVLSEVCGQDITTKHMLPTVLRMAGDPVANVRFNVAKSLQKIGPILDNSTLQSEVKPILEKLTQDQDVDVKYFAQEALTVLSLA
T1 sequence (P67775 whole entry): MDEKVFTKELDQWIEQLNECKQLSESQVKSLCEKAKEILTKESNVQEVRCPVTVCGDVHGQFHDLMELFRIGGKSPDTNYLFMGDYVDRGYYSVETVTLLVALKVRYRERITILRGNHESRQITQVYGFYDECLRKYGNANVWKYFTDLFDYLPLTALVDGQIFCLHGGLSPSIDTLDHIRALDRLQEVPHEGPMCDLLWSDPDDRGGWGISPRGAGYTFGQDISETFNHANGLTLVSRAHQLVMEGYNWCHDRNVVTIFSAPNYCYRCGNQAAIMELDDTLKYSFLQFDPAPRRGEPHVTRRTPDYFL
T1 sequence (Q16537 2-467): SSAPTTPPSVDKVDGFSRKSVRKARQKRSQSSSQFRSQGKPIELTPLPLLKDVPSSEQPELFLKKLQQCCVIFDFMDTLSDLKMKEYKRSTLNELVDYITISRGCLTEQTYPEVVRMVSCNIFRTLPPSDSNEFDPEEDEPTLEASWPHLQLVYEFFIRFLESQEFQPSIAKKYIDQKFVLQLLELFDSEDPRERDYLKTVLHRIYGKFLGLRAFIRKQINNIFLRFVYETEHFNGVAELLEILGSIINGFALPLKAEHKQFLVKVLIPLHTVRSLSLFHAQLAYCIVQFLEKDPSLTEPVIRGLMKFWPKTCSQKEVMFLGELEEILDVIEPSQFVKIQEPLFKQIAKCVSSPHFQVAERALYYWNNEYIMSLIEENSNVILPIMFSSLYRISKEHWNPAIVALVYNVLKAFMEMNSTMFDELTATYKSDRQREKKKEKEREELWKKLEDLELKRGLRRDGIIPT

For `OCCN1CCN(CCCN2c3ccccc3Sc3ccc(Cl)cc32)CC1` [PPZ, perphenazine, reference compound], in data set [1], the “phosphorylation of ERK and AKT” value was “significantly reduced”. The same compound returned an MTD at 1 week in data set [2] of 2.5 mg/kg.

Consider `COc1ccc(C(=O)N2c3ccccc3Sc3ccc(Cl)cc32)cc1` [iPAP1], for which the “relative mRNA expression” value in data set [3] is “significantly down-regulated the expression levels of most of these genes”. Moreover, in data set [4], the “assembly of purified PPP2R1A, PPP2CA and PPP2R5E” value is “assembled into an active enzyme complex”. Also, the IC50 is approximately 400 nM in data set [5] (Homo sapiens, KOPTK1, 72 h, 72 hours, PrestoBlue, read-out: IC50 value against KOPT-K1 cells); 200 to 400 nM in data set [6] (Homo sapiens, KOPT-K1, SUPT-13 and RPMI-8402, 72 hours). For the same compound, the “more active than PPZ for mediating T-ALL cell killing” value in data set [5] (KOPT-K1, 72 hours) is reported as 10 times. Also, the “more active than SMAP against T-ALL cells based on the IC50” value in data set [6] (SUPT-13, KOPT-K1 and RPMI-8402) was approximately 5 fold.
